The values below come from patent publication US20050009849A1, “Pyridopyrimidine kinase inhibitors” (priority 2003, published 2005).

For one series, the system named is normal progenitors. The experiment in a line: Inhibition of normal progenitors. The series is classed as cell-based, human. The text has this: (§1) In many experiments the CD34+ blasts were further depleted of GM, megakaryocyte or lymphocyte progenitors (CD 13, 14, 15, 46, 61, 19-) or of erythroid and megakaryocyte progenitors (CD36-, Glycophorin-, CD41/61-) in order to study the drug's effects on purer erythroid or GM progenitors.

In series [1] the test system is R10 Negative and R10 Positive cells (M07e/p210bcr-abl). The experiment in a line: cells. Particulars: M-07e.
The test system of series [2] is human glioblastoma, sarcoma, neuroblastoma and Ewing's sarcoma cell lines. The experiment in a line: cells. The following applies: read-out: average IC50s.
In a further series the test system is CML cell lines. The experiment in a line: cells. Particulars: read-out: IC50 on CML cell lines.
A further series deals with R10-Negative cells. The experiment in a line: CFSE cell division and viability. In kind it is cell-based. Particulars: 25 nM, after one division by Day 2. The procedure:
Using the vital stain, CFSE, it is possible to determine the concentrations of different inhibitors required to arrest cell division and also to quantitate the number of quiescent cells. […] However with exposure to ST1571 at the same concentration many cells continue dividing and 80% are still viable after 6 days; even at 100 nM ST1571, some cells are able to continue dividing and the viability is still 24% at 6 days.

The next series concerns CML progenitors. The experiment in a line: cells. In kind it is cell-based, human. The following applies: for inhibition at 0.01 µM: read-out: average inhibition of CML GM progenitors, 10 nM.
Excerpt: as §1

Another series can be described thus: Solubility. The series is classed as physicochemical.

Like-named read-outs stand apart in the source and are kept apart here.

For the compound `CSc1cccc(Nc2ncc3cc(-c4c(Cl)cccc4Cl)c(=O)n(C)c3n2)c1` [PD173955], the “effect on normal erythroid progenitors” value with normal progenitors (10 nM) is listed as “unaffected”. The “inhibition of normal progenitors” value in the series on normal progenitors (10 nM, any of the cytokines singly or in combination) was “no inhibition”. Moreover, the IC50 in the series with normal progenitors (Homo sapiens) is 350 nM; in series [1], approximately 2 nM; in series [2] it was 400 to 1000 nM; in the series with CML cell lines it was 2 to 35 nM; with CML progenitors (Homo sapiens, read-out: IC50 for CML progenitors, varies in different patients) it was 1.5 to 7.5 nM; in the series with CML progenitors (read-out: IC50 for CML progenitors, varies in different patients) it was approximately 2 nM. Further, in the series with R10-Negative cells, the “cell division (CFSE)” value is given as “subsequent divisions are blocked”. Besides, in the series with CML progenitors (10 nM), the “CML erythroid progenitors' exaggerated response to EPO alone or KL alone” value is reported as “almost completely blocked”. Moreover, the inhibition at 0.01 µM stood at 34% with CML progenitors (Homo sapiens, G- + GM + KL); 68% with CML progenitors (Homo sapiens, G- + GM-CSF at 0.03 ng/ml); 61% in the series with CML progenitors (Homo sapiens, G- + GM-CSF at 10 ng/ml); 83% with CML progenitors (Homo sapiens, KL alone at 50-100 ng/ml). In the series “Solubility”, the solubility entry was “quite insoluble”.

By inhibition is commonly meant the percentage by which the read-out fell short of the control.
